How the values were obtained:
[1] = test system: C57/BL6 mice treated with bleomycin; experiment: bleomycin-treated mice, cells in lung sections after BAL; type: in vivo; conditions: 0.1 mg/kg intraperitoneal daily, day 3 after bleomycin, FIG. 5B
Description: The successful aspiration of bleomycin into the lungs was confirmed by listening for the crackling noise heard after the aspiration. 24 hours following bleomycin aspiration (day 1), mice were treated daily with intraperitoneal injections of 50 microliters of PBS containing 2 microliters of 1 mg/ml of compound 1 (ChemBridge Corporation, San Diego, Calif.) (0.1 mg/kg) dissolved in DMSO (SigmaAldrich, St. Louis, Mo.) or an equal volume of PBS containing 2 microliters of DMSO. All animals were used in accordance with rules published by the National Institutes of Health and with a protocol approved by the Texas A&M University Institutional Animal Care and Use Committee. Mice were weighed daily, and euthanized using CO2 following NIH guidelines at day 3 after bleomycin aspiration. There were no injections on day 3. […] The cells from the first BAL collection were collected by centrifugation at 500×g for 10 minutes. The BAL pellets were resuspended in the secondary and tertiary BAL fluid and the combined cells were collected by centrifugation at 500×g for 5 minutes. The cells were resuspended in 500 microliters of 4% (w/v) BSA-PBS and counted with a hemacytometer. 100 microliters of diluted cells were then aliquoted into cytospin funnels and were then spun onto glass slides (Superfrost plus white slides, VWR) at 400×g for 5 minutes using a cytospin centrifuge (Shandon, Cheshire, England). These cells were then air dried, and stained with anti-mouse Ly6G (Biolegend) to detect neutrophils, anti-mouse CD11b (Biolegend) to detect granulocytes, monocytes, and macrophages, anti-mouse CD11c (MBL International) to detect alveolar macrophages and dendritic cells, or anti-mouse CD45 (Biolegend) to detect leukocytes. For all slides, non-specific; binding was blocked by incubation in PBS containing 4% BSA for 60 minutes. Slides were then incubated with 5 microgram/ml primary antibodies in 4% BSA-PBS for 60 minutes. Primary antibodies were detected with biotinylated mouse anti-rat antibody (Jackson ImmunoResearch, West Grove, Pa.). All secondary antibodies were used at 2.5 microgram/ml in 4% BSA-PBS for 30 minutes. Biotinylated antibodies were detected by a 1/500 dilution of ExtrAvidin alkaline phosphatase (Vector Laboratories, Burlingame, Calif.) in 4% BSA-PBS for 30 minutes. Staining was developed with the Vector Red Alkaline Phosphatase Kit (Vector Laboratories) for 4 minutes following the manufacturer's protocol. […] After washing, the biotinylated antibodies were detected by streptavidin-alkaline phosphatase kit (Vector Laboratories) following the manufacturer's protocol.

[2] = test system: human neutrophils; experiment: human neutrophil adhesion to human fibronectin after TNF-α; type: cell-based; conditions: fibronectin-coated plate, FIG. 2
From the text: Human blood was collected into EDTA tubes (BD Bioscience, San Jose, Calif.) from adult volunteers who gave written consent and with specific approval from the Texas A&M University human subjects Institutional Review Board. Neutrophils were then isolated from the blood using Lympholyte-poly (Cedarlane Laboratories, Hornby, BC, Canada) following the manufacturer's protocol and resuspended in 2% bovine serum albumen (BSA) (fraction V, A3059; Sigma-Aldrich) in RPMI 1640 medium (Lonza, Allendale, N.J.). 96-well tissue culture plates (flat-bottom polystyrene, BD Bioscience) were pre-coated with 20 μg/ml of human plasma fibronectin (Trevigen, Gaithersburg, Md.) in phosphate buffered saline (PBS) for 30 minutes at 37° C. and then blocked with 2% BSA in RPMI for 1 hour at 37° C. 50 microliters of 5×10^5 cells/ml neutrophils were incubated with 3 microgram/ml (0.5 microliters of the stock solution) of compound 1 or 3 for 30 minutes at 37° C. in a 1.5 ml Eppendorf tube (Eppendorf, Hauppauge, N.Y.). When testing the effect of CD209 antibodies on neutrophil adhesion to human fibronectin, anti-human CD209 antibodies clone DCN46 (BD Biosciences, San Jose, Calif.), eB-h209 (eBioscience, San Jose, Calif.), H-200 (Santa Cruz Biotechnology, Dallas, Tex.), ab89186 (Abcam, Cambridge, Mass.), or 9E9A8 (Biolegend Inc, San Diego, Calif.) were incubated with neutrophils at a concentration of 1 microgram/ml (0.2 microliters of the stock solution) or the concentration indicated on the figure. Rat IgG2a was used as an isotype control for the anti-human CD209 antibody clone eB-h209. Mouse IgG2b was used as an isotype control for the anti-human CD209 antibody clone DCN46. Mouse IgG1 was used as an isotype control for the anti-human CD209 antibody clone 9E9A8. Rabbit IgG was used as an isotype control for the two rabbit anti-human CD209 antibodies clone H-200 and ab89186. […] After removing the media and washing the plates 3 times with PBS, the plates were air-dried, fixed, stained, and the number of neutrophils that remained in the wells was counted. […]

[3] = molecular target: T1, CD209 (Homo sapiens, UniProt Q9NNX6); conditions: read-out: affinity for CD209, Kd; cited from earlier work
T1 sequence (Q9NNX6 1-404): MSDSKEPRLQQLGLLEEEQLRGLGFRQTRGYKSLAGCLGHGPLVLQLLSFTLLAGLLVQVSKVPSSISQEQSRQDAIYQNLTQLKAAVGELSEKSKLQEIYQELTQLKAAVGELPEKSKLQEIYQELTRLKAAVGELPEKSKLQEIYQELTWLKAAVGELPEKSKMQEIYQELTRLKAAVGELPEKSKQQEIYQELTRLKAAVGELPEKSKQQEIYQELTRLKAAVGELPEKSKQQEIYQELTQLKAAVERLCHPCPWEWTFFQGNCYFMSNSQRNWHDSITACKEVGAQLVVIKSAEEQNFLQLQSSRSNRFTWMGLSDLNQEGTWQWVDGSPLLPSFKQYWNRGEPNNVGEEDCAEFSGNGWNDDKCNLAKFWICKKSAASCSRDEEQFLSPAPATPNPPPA

[4] = test system: C57/BL6 mice treated with bleomycin; experiment: bleomycin-treated mice, cells in bronchoalveolar lavage (BAL); type: in vivo; conditions: 0.1 mg/kg intraperitoneal daily from day 1, day 3 after bleomycin, versus drug vehicle; FIG. 5A
Description: The successful aspiration of bleomycin into the lungs was confirmed by listening for the crackling noise heard after the aspiration. 24 hours following bleomycin aspiration (day 1), mice were treated daily with intraperitoneal injections of 50 microliters of PBS containing 2 microliters of 1 mg/ml of compound 1 (ChemBridge Corporation, San Diego, Calif.) (0.1 mg/kg) dissolved in DMSO (SigmaAldrich, St. Louis, Mo.) or an equal volume of PBS containing 2 microliters of DMSO. All animals were used in accordance with rules published by the National Institutes of Health and with a protocol approved by the Texas A&M University Institutional Animal Care and Use Committee. Mice were weighed daily, and euthanized using CO2 following NIH guidelines at day 3 after bleomycin aspiration. There were no injections on day 3. […] The cells were resuspended in 500 microliters of 4% (w/v) BSA-PBS and counted with a hemacytometer. […] Primary antibodies were detected with biotinylated mouse anti-rat antibody (Jackson ImmunoResearch, West Grove, Pa.). […] Biotinylated antibodies were detected by a 1/500 dilution of ExtrAvidin alkaline phosphatase (Vector Laboratories, Burlingame, Calif.) in 4% BSA-PBS for 30 minutes. […] After washing, the biotinylated antibodies were detected by streptavidin-alkaline phosphatase kit (Vector Laboratories) following the manufacturer's protocol.

[5] = test system: human neutrophils; experiment: human neutrophil spreading on fibronectin-coated plates after TNF-α; type: cell-based; conditions: 3 microgram/ml compound, FIG. 3
[6] = molecular target: T2, CD209 tetramer (Homo sapiens, UniProt Q9NNX6); conditions: concentration required to inhibit, by 50%, the binding of a fluorescently labeled mannosylated glycoconjugate to CD209 tetramer; cited from earlier work
T2 sequence (Q9NNX6 59-404 limits assumed): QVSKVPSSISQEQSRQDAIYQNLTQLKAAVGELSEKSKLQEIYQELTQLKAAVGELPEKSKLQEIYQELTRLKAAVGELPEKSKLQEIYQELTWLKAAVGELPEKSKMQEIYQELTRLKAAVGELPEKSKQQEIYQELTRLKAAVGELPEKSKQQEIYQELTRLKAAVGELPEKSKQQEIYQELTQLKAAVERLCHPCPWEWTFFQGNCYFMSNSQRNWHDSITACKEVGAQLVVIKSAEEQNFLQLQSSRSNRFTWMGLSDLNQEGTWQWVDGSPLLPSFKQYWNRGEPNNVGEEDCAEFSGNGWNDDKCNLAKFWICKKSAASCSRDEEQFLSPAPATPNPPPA

[7] = 3 microgram/ml compound, 30 minutes

Compound | Kd [3] [µM] | IC50 [6] [µM] | further results
CCC(=O)Nc1nc(C)c(-c2csc(Nc3ccc(N(C)C)cc3)n2)s1 [Compound 1] | 1.6 | – | CD11c-positive macrophages in lung sections ([1]; versus drug vehicle): significant increase; CD206-positive cells in lung sections ([1]; versus drug vehicle): significant increase; number of Ly6G-positive neutrophils in lung sections ([1]; versus drug vehicle): significant decrease; CD11b-positive inflammatory macrophages in lung sections [1]: no effect; neutrophil adhesion compared to the TNF-α control [2, 7]: significantly reduced neutrophil adhesion; number of CD11b-positive inflammatory macrophages in the BAL [4]: decrease; number of Ly6G-positive neutrophils in the BAL [4]: decrease; neutrophil spreading compared to the TNF-α control [5]: reduced neutrophil spreading
CCCOC(=O)c1ccc(-c2ccc(C=C3C(=O)N(c4ccc(S(N)(=O)=O)cc4)N=C3C(F)(F)F)o2)cc1 [Compound 2] | 6.2 | – | –
COC(=O)c1ccc(-c2ccc(C=C3C(=O)N(c4ccc(S(N)(=O)=O)cc4)N=C3C(F)(F)F)o2)cc1 [Compound 3] | 32 | – | neutrophil adhesion compared to the TNF-α control [2, 7]: significantly reduced neutrophil adhesion
O=C1Nc2cc(C(=O)N3CCN(c4ccccc4)CC3)ccc2NC1CSCc1c(F)cccc1Cl (stereo not shown) [Compound 4] | 7.3 | – | –
Cc1ccc(N(C)S(=O)(=O)c2ccc3[nH]cc(C(=O)N4CCN(c5ccccc5)CC4)c(=O)c3c2)cc1C [Compound 6] | 6.1 | – | –
CN1CCN(c2ccc(/C=C3\Sc4ccccc4C3=O)cc2[N+](=O)[O-])CC1 [Compound 7] | 10 | – | –
CCCCCC1C(=O)Nc2cc(C(=O)N3CCN(CCC)CC3)ccc2N1CC (stereo not shown) [Compound 9] | – | 370 | –
CCCCCC1C(=O)Nc2cc(C(=O)N3CCN(CC)CC3)ccc2N1C (stereo not shown) [Compound 10] | – | 360 | –
CCCCC1C(=O)Nc2cc(C(=O)N3CCN(C)CC3)ccc2N1C (stereo not shown) [Compound 11] | – | 329 | –
CCCCC1Nc2ccc(C(=O)N3CCN(C)CC3)cc2NC1=O (stereo not shown) [Compound 12] | – | 313 | –
CCC(=O)CCCC1C(=O)Nc2cc(C(=O)N3CCN(c4ccccc4)CC3)ccc2N1Cc1ccccc1 (stereo not shown) [Compound 14] | – | 170 | –
O=C1Nc2cc(C(=O)N3CCN(c4ccccc4O)CC3)ccc2NC1CCCc1ccccc1 (stereo not shown) [Compound 15] | – | 113 | –
O=C1Nc2cc(C(=O)N3CCN(c4ccccc4)CC3)ccc2NC1CCCc1ccccc1C(F)(F)F (stereo not shown) [Compound 16] | – | 71 | –
CCN1c2ccc(C(=O)N3CCN(c4ncccn4)CC3)cc2NC(=O)C1CCCc1ccc(C(N)=O)cc1 (stereo not shown) [Compound 17] | – | 68 | –
CC(=O)Nc1cccc(CCCC2Nc3ccc(C(=O)N4CCN(c5cccc(C(F)(F)F)c5)CC4)cc3NC2=O)c1 (stereo not shown) [Compound 19] | – | 23 | –
O=C(O)c1ccc(CCCC2Nc3ccc(C(=O)N4CCN(c5ccco5)CC4)cc3NC2=O)cc1 (stereo not shown) [Compound 20] | – | 10 | –
COc1ccccc1N1CCN(C(=O)c2ccc3c(c2)NC(=O)C(CCCc2ccccc2C)N3)CC1 (stereo not shown) [Compound 21] | – | 4.4 | –
NC(=O)c1ccc(CCCC2Nc3ccc(C(=O)N4CCN(c5ncccn5)CC4)cc3NC2=O)cc1 (stereo not shown) [Compound 22] | – | 2.6 | –
SAP: Serum Amyloid P from EMD Millipore, known to inhibit neutrophil migration and adhesion [reference compound] | – | – | neutrophil adhesion compared to the TNF-α control ([2]; 10 microgram/ml SAP): significantly reduced neutrophil adhesion
